Laboratory results: patent US10428082B2, “Triazole derivatives of melampomagnolide B and methods of use thereof” (BioVentures, LLC, priority 2016, dated 2019)
pEC50: −log10 of the molar value. Read-outs that look alike come from different tables or passages of the source.

Experiments:
[1] = system: M9 ENL1 cell line; assay: Anti-leukemic activity, Annexin V/7-AAD flow cytometry; format: cell-based; conditions: for pEC50: M9-ENL1, 24 h, 24 h of drug exposure, read-out: M9ENL1 (EC50)
Procedure: (§1) The newly synthesized triazole derivatives of melampomagnolide B were screened for anti-leukemic activity against M9 ENL1 and primary AML cell lines; the latter were obtained with informed consent from human patients. Evaluations were performed after 24 h of drug exposure using flow cytometric analysis by labeling with Annexin V and 7-aminoactinomycin D (7-AAD) to delineate apoptotic cell populations. In all experiments PTL was included as a reference control.

[2] = system: primary AML cell line AML1; assay: as above; format: cell-based, human; conditions: for pEC50: Homo sapiens, AML1, 24 h, 24 h of drug exposure, read-out: AML#1 (EC50)
Procedure: as §1

[3] = system: primary AML cell line AML2; assay: as above; format: cell-based, human; conditions: for pEC50: Homo sapiens, 24 h, 24 h of drug exposure, read-out: AML#2 (EC50)
Procedure: as §1

[4] = system: A498; assay: NCI 60 growth inhibition; format: cell-based, human; conditions: Homo sapiens; A498, Renal Cancer, Table 2
[5] = system: BT-549; assay: NCI 60 growth inhibition; format: cell-based, human; conditions: Homo sapiens; BT-549, Breast Cancer, Table 2
[6] = system: CAKI-1; assay: NCI 60 growth inhibition; format: cell-based, human; conditions: Homo sapiens; CAKI-1, Renal Cancer, Table 2
[7] = system: HCT-116; assay: NCI 60 growth inhibition; format: cell-based, human; conditions: Homo sapiens; HCT-116, Colon Cancer, Table 2
[8] = system: HL-60(TB); assay: NCI 60 growth inhibition; format: cell-based, human; conditions: Homo sapiens; HL-60(TB), Leukemia, Table 2
[9] = system: HOP-92; assay: NCI 60 growth inhibition; format: cell-based, human; conditions: Homo sapiens; HOP-92, Non-Small Cell Lung Cancer, Table 2
[10] = system: HT29; assay: NCI 60 growth inhibition; format: cell-based, human; conditions: Homo sapiens; HT-29, Colon Cancer, Table 2
[11] = system: IGROV1; assay: NCI 60 growth inhibition; format: cell-based, human; conditions: Homo sapiens, IGROV-1; IGROV1, Ovarian Cancer, Table 2
[12] = system: K-562; assay: NCI 60 growth inhibition; format: cell-based, human; conditions: Homo sapiens, K562; K-562, Leukemia, Table 2
[13] = system: KM12; assay: NCI 60 growth inhibition; format: cell-based, human; conditions: Homo sapiens; KM12, Colon Cancer, Table 2
[14] = system: MDA-MB-231/ATCC; assay: NCI 60 growth inhibition; format: cell-based, human; conditions: Homo sapiens, Breast Cancer, Table 2
[15] = system: OVCAR-3; assay: NCI 60 growth inhibition; format: cell-based, human; conditions: Homo sapiens; OVCAR-3, Ovarian Cancer, Table 2
[16] = system: RXF 393; assay: NCI 60 growth inhibition; format: cell-based, human; conditions: Homo sapiens
[17] = system: SK-MEL-28; assay: NCI 60 growth inhibition; format: cell-based, human; conditions: Homo sapiens; SK-MEL-28, Melanoma, Table 2
[18] = system: SK-OV-3; assay: NCI 60 growth inhibition; format: cell-based, human; conditions: Homo sapiens; SK-OV-3, Ovarian Cancer, Table 2
[19] = system: SN12C; assay: NCI 60 growth inhibition; format: cell-based, human; conditions: Homo sapiens, Renal Cancer, Table 2
[20] = system: SNB-19; assay: NCI 60 growth inhibition; format: cell-based, human; conditions: Homo sapiens; SNB-19, CNS Cancer, Table 2
[21] = system: SNB-75; assay: NCI 60 growth inhibition; format: cell-based, human; conditions: Homo sapiens; SNB-75, CNS Cancer, Table 2
[22] = system: SR; assay: NCI 60 growth inhibition; format: cell-based, human; conditions: Homo sapiens, Leukemia, Table 2
[23] = system: T-47D; assay: NCI 60 growth inhibition; format: cell-based, human; conditions: Homo sapiens, T47D, Breast Cancer, Table 2
[24] = system: NCI panel of 60 human cancer cell lines; assay: NCI 60 growth inhibition, ranges over groups of cell lines; format: cell-based
Procedure: The above triazole derivatives of melampomagnolide B were evaluated for growth inhibitory properties against an NCI panel of 60 human cancer cell lines derived from nine human cancer cell types, grouped into disease sub-panels that represent leukemia, lung, colon, central nervous system (CNS), melanoma, renal, ovary, breast, and prostate cancer cells. Growth inhibitory (GI50) effects were measured as a function of the variation of optical density as a percentage of control.

[25] = system: HO-1; assay: Induction of HO-1 by Western blot assay; format: cell-based
[26] = system: NF-κB pathway; assay: NF-κB inhibition by Western blot, phosphorylation of the P65 subunit; format: cell-based
Procedure: Also JVM 4-29 was evaluated for NF-κB inhibition by Western blot analysis; by determining its effect on the phosphorylation of the P65 subunit.

[27] = RXF 393, RXF 393, Renal Cancer, Table 2
[28] = all the cell lines in the leukemia sub-panel, read-out: GI50
[29] = most of the solid tumor cell lines in the panel, read-out: GI50

Row | Structure (SMILES) | pEC50 [2] | pEC50 [3] | GI50 [4] [nM] | GI50 [5] [nM] | GI50 [7] [nM] | GI50 [8] [nM] | GI50 [9] [nM] | GI50 [10] [nM] | GI50 [11] [nM] | GI50 [12] [nM] | GI50 [13] [nM] | GI50 [14] [nM] | GI50 [15] [nM] | GI50 [16, 27] [nM] | GI50 [17] [nM] | GI50 [18] [nM] | GI50 [19] [nM] | GI50 [20] [nM] | GI50 [21] [nM] | GI50 [22] [nM] | other results
1 | C=C1C(=O)O[C@H]2[C@H]1CC/C(Cn1cc(-c3ccc(OC)cc3)nn1)=C\CC[C@@]1(C)O[C@@H]21 [JVM 4-24, (1aR,7aS,10aS,10bS,E)-5((4-(4-Methoxyphenyl)-1H-1,2,3-triazol-1-yl)methyl)-1a-methyl-8-methylene-2,3,6,7,7a,8,10a,10b-octahydrooxireno[2′,3′:9,10]cyclodeca[1,2-b]furan-9(1aH)-one] | 5.70 | 5.60 | 2350 | 1310 | 480 | 1170 | 1130 | 1230 | 1350 | 1300 | 3510 | 1440 | 560 | 700 | 820 | 16300 | 1960 | 6920 | 1470 | 250 | pEC50 [1]: 5.85; GI50 [6]: 1030 nM; GI50 [23]: 1430 nM; GI50 ([24]; 60 cell, several cell lines in the NCI 60 cell panel, read-out: GI50): 200 to 990 nM
2 | C=C1C(=O)O[C@H]2[C@H]1CC/C(Cn1cc(-c3cccc(Cl)c3)nn1)=C\CC[C@@]1(C)O[C@@H]21 [JVM 4-25, (1aR,7aS,10aS,10bS,E)-5((4-(3-Chlorophenyl)-1H-1,2,3-triazol-1-yl)methyl)-1a-methyl-8-methylene-2,3,6,7,7a,8,10a,10b-octahydrooxireno[2′,3′:9,10]cyclodeca[1,2-b]furan-9(1aH)-one] | 6.00 | 5.77 | 1520 | 770 | 160 | 330 | 250 | 510 | 730 | 400 | 1780 | 1090 | 470 | 550 | 350 | 3670 | 1400 | 2400 | 1160 | 230 | GI50 [6]: 860 nM; GI50 [23]: 830 nM; GI50 [24, 28]: 100 to 500 nM; GI50 [24, 29]: 160 to 990 nM
3 | C=C1C(=O)O[C@H]2[C@H]1CC/C(Cn1cc(-c3ccc(F)cc3)nn1)=C\CC[C@@]1(C)O[C@@H]21 [JVM 4-26] | 5.96 | 5.72 | 1820 | 830 | 290 | 720 | 340 | 690 | 1170 | 940 | 1700 | 1220 | 490 | 870 | 820 | 9780 | 1640 | 3390 | 1250 | 250 | GI50 [6]: 1030 nM; GI50 [23]: 740 nM; GI50 ([24]; leukemia cell lines CCRF-CEM, HL-60(TB), K-562, MOLT-4 and SR, read-out: growth inhibition values): 240 to 940 nM; GI50 [24, 29]: 180 to 940 nM
4 | C=C1C(=O)O[C@H]2[C@H]1CC/C(Cn1cc(-c3cc(C(F)(F)F)cc(C(F)(F)F)c3)nn1)=C\CC[C@@]1(C)O[C@@H]21 [JVM 4-29, (1aR,7aS,10aS,10bS,E)-5-((4-(3,5-bis(Trifluoromethyl)phenyl)-1H-1,2,3-triazol-1-yl)methyl)-1a-methyl-8-methylene-2,3,6,7,7a,8,10a,10b-octahydrooxireno[2′,3′:9,10]cyclodeca[1,2-b]furan-9(1aH)-one] | 6.40 | 6.15 | 430 | 170 | 150 | 190 | 340 | 190 | 840 | 230 | 1040 | 330 | 150 | 20 | 460 | 1860 | 700 | 1710 | 1260 | 100 | pEC50 [1]: 6.22; cytotoxicity compared with parthenolide ([1]; M9 ENL1 cell assay): more cytotoxic than parthenolide; fold more potent than parthenolide (PTL) ([1]; M9 ENL1 cells): 8.6 fold; fold more cytotoxic compared to DMAPT ([2]; primary cell line AML1): 36.7 fold; fold more potent anti-leukemic activity than PTL ([2]; primary cell line AML1): 32.7 fold; fold more potent than the MMB ([2]; primary cell line AML1): 51.2 fold; fold more cytotoxic compared to DMAPT ([3]; primary cell line AML2): 16.1 fold; fold more potent anti-leukemic activity than PTL ([3]; primary cell line AML2): 14.8 fold; fold more potent than the MMB ([3]; primary cell line AML2): 34.7 fold; induction of HO-1 compared to PTL [25]: stronger induction of HO-1 when compared to PTL; inhibition of the NF-κB pathway compared to parthenolide [26]: significantly more potency as an inhibitor of the NF-κB pathway when compared to parthenolide; GI50 ([16]; RXF 393, RXF 393 renal cancer cell line): 27 nM; GI50 [23]: 330 nM; GI50 [24, 28]: 100 to 500 nM; GI50 [24, 29]: 120 to 880 nM
